“And” between values parts separate entries of the source, which are not always exact repeats. Identical values can stand only once.
Assays:
[1] = tested on: OXPHOS complexes; test: Western blotting for OXPHOS complexes in Jurkat T cells and PBMCs; assay type: cell-based; conditions: Jurkat T cells and human PBMCs, 5 μM, 6 days
Procedure: Human PBMCs and Jurkat T cells were seeded in 6-well plates at a density of 1 million cells/ml and incubated with or without antibiotics in RPMI-1640 medium (with 10% FBS, 2.05 mM L-glutamine (Sigma), and 55 μM 2-ME (Gibco)) for 6 days. After centrifugation, cells were lysed in RIPA buffer containing protease and phosphatase inhibitors (cOmplete and PhosSTOP, respectively, Roche). Protein concentrations were determined by BCA (Pierce, Thermo Fisher). Protein samples were resuspended with 1× NuPAGE LDS sample buffer (Thermo Fisher) supplemented with 100 mM dithiothreitol, heated for 10 min at 75 °C, and separated on NuPAGE 4–12% Bis-Tris mini gels (Thermo Fisher) using NuPAGE 1× MES (Thermo Fisher) running buffer, and transferred to PVDF membranes (0.45 μm, Immobilon-P, Sigma) using the iBlot2 system (Invitrogen). Non-specific binding was blocked with TBST containing 5% non-fat milk, followed by overnight incubation at 4 °C with antibodies against Total OXPHOS Human WB Antibody Cocktail (Abcam, Cambridge, UK), followed by HRP-conjugated secondary antibodies for 1 h at room temperature. β-actin, HSP60, and GAPDH (Cell Signaling Technology) were used as loading control. Proteins were detected using Clarity Western ECL Substrate (Bio-Rad, 170-5061). For an example of presentation of full scan blots, see the Source Data file.

[2] = tested on: CD4+ T cell subsets (Tn, Tcm, Tem); test: Proliferation of FACS-isolated naive, central memory and effector memory CD4+ T cells; assay type: cell-based, human
Procedure: Thawed PBMCs were washed with RPMI complemented with 10% FBS, 2.05 mM L-glutamine (Sigma), and 55 μM 2-ME (Gibco) before resting at 37 °C (5% CO2) for 30 min. After counting, cells were resuspended in FACS buffer at a density of 5 × 10^7 cells/ml. CD4^+ T cells were isolated using CD4^+ T cell negative isolation kits (Miltenyi Biotech) and enriched using CD4^+ T cell Enrichment kits (Miltenyi Biotech). Purified CD4^+ T cells were counted and stained with CTV dye and live/dead dye. Subsequently, surface makers were stained at 4 °C in FACS buffer (DPBS + 2% FBS). The following panels were used to classify human T CD4^+ cells from the live lymphocyte gate: naïve CD4^+ T cells: Aqua^-CD4^+CD45RA^+CD27^+; central memory CD4^+ T cells: Aqua^-CD4^+CD45RA^-CD27^+, effector memory CD4^+ T cells: Aqua^-CD4^+CD45RA^-CD27^-. After staining, cells were washed, resuspended and sorted using a FACSAria Fusion (BD Biosciences). Sorted cells were collected into PBS complemented with 2% FBS at 4 °C. Cells were then harvested via centrifugation and resuspended in RPMI-1640 ( + 10% FBS, 2.05 mM L-glutamine (Sigma), and 55 μM 2-ME (Gibco) before counting. Sorted CD4^+ subsets were counted and 85,000 cells per well seeded onto 96-well U-bottom plates with/without Human T-Activator CD3/CD28 beads (Invitrogen) at a 1:2.8 cell:bead ratio and 10 ng/ml IL-2 (Proteintech) in RPMI-1640 ( + 10% FBS, 2.05 mM L-glutamine (Sigma), and 55 μM 2-ME (Gibco). At the same time, tigecycline in serial concentrations (from 2.5 to 10 μM) was added. A half medium change took place after 3 days, and cells were harvested after 6 days for flow cytometry. Antibodies used in the study are presented in Supplementary Table 2.

## CN(C)c1cc(NC(=O)CNC(C)(C)C)c(O)c2c1C[C@H]1C[C@H]3[C@H](N(C)C)C(O)=C(C(N)=O)C(=O)[C@@]3(O)C(O)=C1C2=O [Tigecycline, tigecycline]
[1]
  levels of subunits of complex I (NDUFB8), complex III (UQCRCII) and complex IV (COX2): drop
  levels of subunits of complex II (SDHB) and complex V (ATP5A): less affected
[2]; 10 μM, 6 days
  proliferation of naive, central memory and effector memory CD4+ T cells: significantly inhibited the proliferation of all subsets
[2]; Naïve, 2.5μM, division number 0
  % Cells in each division: 4.49% and 2.85% and 0.99%
[2]; Naïve, 2.5μM, division number 2
  % Cells in each division: 44.1% and 38.6% and 39.3%
[2]; Naïve, 2.5μM, division number 5
  % Cells in each division: 0.076% and 0.28% and 0.23%
[2]; Naïve, 2.5μM, division number 6
  % Cells in each division: 0.17% and 0.1% and 0.16%
[2]; Naïve, 2.5μM, division number 7
  % Cells in each division: 0.25% and 0.12%
[2]; Naïve, 5μM, division number 0
  % Cells in each division: 3.52% and 9.14% and 5.5%
[2]; Naïve, 5μM, division number 1
  % Cells in each division: 30.8% and 43.7% and 27.9%
[2]; Naïve, 5μM, division number 2
  % Cells in each division: 51%
[2]; Naïve, 5μM, division number 5
  % Cells in each division: 0.058% and 0.021% and 0.055%
[2]; Naïve, 5μM, division number 6
  % Cells in each division: 0.28% and 0.21% and 0.25%
[2]; Naïve, 5μM, division number 7
  % Cells in each division: 0.45% and 0.34% and 0.31%
[2]; Naïve, 10μM, division number 0
  % Cells in each division: 20.7% and 12.2% and 12.7%
[2]; Naïve, 10μM, division number 1
  % Cells in each division: 58.7% and 45.6% and 58.3%
[2]; Naïve, 10μM, division number 2
  % Cells in each division: 19.7% and 37.8% and 26.9%
[2]; Naïve, 10μM, division number 5
  % Cells in each division: 0% and 0.056% and 0.037%
[2]; Naïve, 10μM, division number 6
  % Cells in each division: 0.22% and 0.27% and 0.31%
[2]; Naïve, 10μM, division number 7
  % Cells in each division: 0.47% and 0.48% and 0.72%
[2]; TCM, 2.5μM, division number 0
  % Cells in each division: 11.5% and 6.18% and 6.94%
[2]; TCM, 2.5μM, division number 1
  % Cells in each division: 38% and 27.5% and 31.5%
[2]; TCM, 2.5μM, division number 2
  % Cells in each division: 33.5% and 37.9% and 38.1%
[2]; TCM, 2.5μM, division number 5
  % Cells in each division: 0.31% and 0.62% and 0.44%
[2]; TCM, 2.5μM, division number 6
  % Cells in each division: 0.5% and 0.64% and 0.43%
[2]; TCM, 2.5μM, division number 7
  % Cells in each division: 0.62% and 0.7%
[2]; TCM, 5μM, division number 0
  % Cells in each division: 31.4% and 19.3% and 18.6%
[2]; TCM, 5μM, division number 1
  % Cells in each division: 46.4% and 46.1% and 47.3%
[2]; TCM, 5μM, division number 2
  % Cells in each division: 17% and 26.2% and 27.6%
[2]; TCM, 5μM, division number 5
  % Cells in each division: 0.095% and 0.16% and 0.1%
[2]; TCM, 5μM, division number 6
  % Cells in each division: 0.58% and 0.85% and 0.47%
[2]; TCM, 5μM, division number 7
  % Cells in each division: 1.11% and 1.15% and 0.74%
[2]; TCM, 10μM, division number 0
  % Cells in each division: 51.5% and 35.3% and 35.1%
[2]; TCM, 10μM, division number 1
  % Cells in each division: 39.1% and 48.8% and 52.5%
[2]; TCM, 10μM, division number 2
  % Cells in each division: 6.84% and 12.8% and 10.7%
[2]; TCM, 10μM, division number 5
  % Cells in each division: 0.11% and 0.14% and 0.05%
[2]; TCM, 10μM, division number 6
  % Cells in each division: 0.69% and 0.83% and 0.56%
[2]; TCM, 10μM, division number 7
  % Cells in each division: 1.26% and 0.83%
